Test results published in publication PMC9475448, “What a difference a methylene makes: replacing Glu with Asp or Aad in the Lys-urea-Glu pharmacophore of PSMA-targeting radioligands to reduce kidney and salivary gland uptake” (Theranostics, 2022).

What was measured:
LNCaP tumor-bearing mice [1] = experiment: Radioligand therapy study in LNCaP tumor-bearing NRG mice; settings: 37 MBq injected
LNCaP tumor-bearing mice [2] = experiment: Ex vivo biodistribution of 177Lu-labeled ligands in LNCaP tumor-bearing NRG mice
LNCaP tumor-bearing mice [3] = experiment: Longitudinal SPECT/CT imaging of 177Lu-labeled ligands; assay type: in vivo
Description: SPECT/CT imaging experiments were conducted using the MILabs (Utrecht, The Netherlands) U-SPECT-II/CT scanner. Each tumor-bearing mouse (n = 1-2 was injected with ∼37 MBq (50-250 pmol) of ^177Lu-labeled compound through a lateral caudal tail vein. The mice were imaged at 1, 4, 24, 72, and 120 h after injection. At each time point, a 5-min CT scan was conducted first for anatomical reference followed by 2 × 30-min static emission scans acquired in list mode.

[4] = test system: LNCaP tumor and major mouse organs/tissues; experiment: Radiation dosimetry calculation with OLINDA software from biodistribution data; settings: 25-g mouse
Source text: The biodistribution data (available in the Supplemental Table s 5- 6) were used to determine the kinetics input values required by OLINDA. First, each of the values was decayed to its corresponding time point (the values on the table are shown at injection time). Then the different time-points of the uptake data (%IA/g) for each organ were fitted to both mono- exponential ( ) and bi-exponential ( ) functions using in-house software developed in Python. The best fit was selected based on maximizing the coefficient of determination (R2) of the fit and minimizing the residuals. The areas under the curves were analytically calculated based on the parameters obtained from the best fit of each organ and this provided the kinetic input values required by OLINDA.
In the mouse case, the adrenals, blood, fat, and muscle are not modeled in the phantom. These organs were grouped together and included in what OLINDA calls the remainder of the body .
Lastly, the numbers of decays in the tumors were also calculated based on the biodistribution data of the mice and the values were inputted into the sphere model available in OLINDA.

[5] = 1 h post-injection, listed as [177Lu]Lu-PSMA-617
[6] = 4 h post-injection, listed as [177Lu]Lu-PSMA-617

## [^177Lu]Lu-PSMA-617
LNCaP tumor-bearing mice [1]
  Median survival: 63 days
LNCaP tumor-bearing mice [2]; 1 h post-injection
  Adrenal glands uptake: 3.025 ± 0.939 %IA/g
  Blood uptake: 0.750 ± 0.119 %IA/g
  Blood:Salivary gland uptake ratio: < 1.0
  Bone uptake: 0.118 ± 0.026 %IA/g
  Brain uptake: 0.028 ± 0.007 %IA/g
  Fat uptake: 0.327 ± 0.069 %IA/g
  Heart uptake: 0.294 ± 0.045 %IA/g
  Intestines uptake: 0.275 ± 0.032 %IA/g
  Kidneys uptake: 79.7±11.7 %IA/g
  Lacrimal glands uptake: 0.068 ± 0.022 %IA/g
  Liver uptake: 0.224 ± 0.030 %IA/g
  Lungs uptake: 1.377 ± 0.152 %IA/g
  Muscle uptake: 0.177 ± 0.032 %IA/g
  Pancreas uptake: 0.387 ± 0.074 %IA/g
  Salivary glands uptake: 1.78±0.38 %IA/g
  Spleen uptake: 3.666 ± 1.342 %IA/g
  Stomach uptake: 0.130 ± 0.054 %IA/g
  Testes uptake: 0.433 ± 0.068 %IA/g
  Thyroid uptake: 0.556 ± 0.073 %IA/g
  Tumor uptake: 16.5±2.46 %IA/g
  Tumor:Blood uptake ratio: 22.5 ± 4.07
  Tumor:Kidney uptake ratio: 0.21 ± 0.04
  Tumor:Muscle uptake ratio: 94.3 ± 12.8
  Tumor:Salivary gland uptake ratio: 9.81 ± 3.33
LNCaP tumor-bearing mice [2]; [5]
  Blood:Salivary gland uptake ratio: 0.44 ± 0.12
  Kidneys uptake: 79.67 ± 11.68 %IA/g
  Salivary glands uptake: 1.775 ± 0.381 %IA/g
  Tumor uptake: 16.48 ± 2.456 %IA/g
LNCaP tumor-bearing mice [2]; 4 h post-injection
  Adrenal glands uptake: 0.469 ± 0.527 %IA/g
  Blood uptake: 0.031 ± 0.017 %IA/g
  Blood:Salivary gland uptake ratio: 0.20 ± 0.06
  Bone uptake: 0.017 ± 0.007 %IA/g
  Brain uptake: 0.011 ± 0.001 %IA/g
  Fat uptake: 0.028 ± 0.011 %IA/g
  Heart uptake: 0.026 ± 0.006 %IA/g
  Intestines uptake: 0.135 ± 0.042 %IA/g
  Kidneys uptake: 13.1±9.60 %IA/g
  Lacrimal glands uptake: 0.079 ± 0.056 %IA/g
  Liver uptake: 0.056 ± 0.012 %IA/g
  Lungs uptake: 0.123 ± 0.052 %IA/g
  Muscle uptake: 0.020 ± 0.004 %IA/g
  Pancreas uptake: 0.031 ± 0.012 %IA/g
  Salivary glands uptake: 0.14±0.04 %IA/g
  Spleen uptake: 0.222 ± 0.117 %IA/g
  Stomach uptake: 0.029 ± 0.017 %IA/g
  Testes uptake: 0.055 ± 0.018 %IA/g
  Thyroid uptake: 0.065 ± 0.027 %IA/g
  Tumor uptake: 14.24 ± 1.804 %IA/g
  Tumor:Blood uptake ratio: 593 ± 338
  Tumor:Kidney uptake ratio: 1.58 ± 0.98
  Tumor:Muscle uptake ratio: 748 ± 180
  Tumor:Salivary gland uptake ratio: 105 ± 28.0
LNCaP tumor-bearing mice [2]; [6]
  Kidneys uptake: 13.06 ± 9.598 %IA/g
  Salivary glands uptake: 0.142 ± 0.039 %IA/g
LNCaP tumor-bearing mice [2]; 24 h post-injection
  Adrenal glands uptake: 0.032 ± 0.010 %IA/g
  Blood uptake: 0.004 ± 0.001 %IA/g
  Blood:Salivary gland uptake ratio: 0.10 ± 0.02
  Bone uptake: 0.009 ± 0.005 %IA/g
  Brain uptake: 0.010 ± 0.002 %IA/g
  Fat uptake: 0.009 ± 0.008 %IA/g
  Heart uptake: 0.009 ± 0.003 %IA/g
  Intestines uptake: 0.059 ± 0.039 %IA/g
  Kidneys uptake: 0.658 ± 0.159 %IA/g
  Lacrimal glands uptake: 0.050 ± 0.024 %IA/g
  Liver uptake: 0.043 ± 0.027 %IA/g
  Lungs uptake: 0.028 ± 0.005 %IA/g
  Muscle uptake: 0.005 ± 0.001 %IA/g
  Pancreas uptake: 0.008 ± 0.002 %IA/g
  Salivary glands uptake: 0.018 ± 0.003 %IA/g
  Spleen uptake: 0.039 ± 0.007 %IA/g
  Stomach uptake: 0.044 ± 0.011 %IA/g
  Testes uptake: 0.018 ± 0.003 %IA/g
  Tumor uptake: 13.18 ± 3.151 %IA/g
  Tumor:Blood uptake ratio: 4045 ± 1693
  Tumor:Kidney uptake ratio: 21.6 ± 8.83
  Tumor:Muscle uptake ratio: 2905 ± 453
  Tumor:Salivary gland uptake ratio: 371 ± 129
LNCaP tumor-bearing mice [2]; 72 h post-injection
  Adrenal glands uptake: 0.007 ± 0.004 %IA/g
  Blood uptake: 0.002 ± 0.001 %IA/g
  Blood:Salivary gland uptake ratio: 0.19 ± 0.08
  Bone uptake: 0.006 ± 0.003 %IA/g
  Brain uptake: 0.008 ± 0.002 %IA/g
  Fat uptake: 0.006 ± 0.012 %IA/g
  Heart uptake: 0.004 ± 0.001 %IA/g
  Intestines uptake: 0.062 ± 0.080 %IA/g
  Kidneys uptake: 0.181 ± 0.046 %IA/g
  Lacrimal glands uptake: 0.023 ± 0.009 %IA/g
  Liver uptake: 0.021 ± 0.004 %IA/g
  Lungs uptake: 0.011 ± 0.002 %IA/g
  Muscle uptake: 0.004 ± 0.004 %IA/g
  Pancreas uptake: 0.003 ± 0.001 %IA/g
  Salivary glands uptake: 0.012 ± 0.003 %IA/g
  Spleen uptake: 0.016 ± 0.005 %IA/g
  Stomach uptake: 0.096 ± 0.155 %IA/g
  Testes uptake: 0.014 ± 0.012 %IA/g
  Thyroid uptake: 0.009 ± 0.002 %IA/g
  Tumor uptake: 11.0±2.12 %IA/g
  Tumor:Blood uptake ratio: 5784 ± 1756
  Tumor:Kidney uptake ratio: 62.4 ± 11.1
  Tumor:Muscle uptake ratio: 4712 ± 3587
  Tumor:Salivary gland uptake ratio: 969 ± 241
LNCaP tumor-bearing mice [2]; 72 h post-injection, listed as [177Lu]Lu-PSMA-617
  Tumor uptake: 10.97 ± 2.122 %IA/g
LNCaP tumor-bearing mice [2]; 120 h post-injection
  Adrenal glands uptake: 0.005 ± 0.008 %IA/g
  Blood uptake: 0.002 ± 0.001 %IA/g
  Blood:Salivary gland uptake ratio: 0.42 ± 0.19
  Bone uptake: 0.003 ± 0.004 %IA/g
  Brain uptake: 0.007 ± 0.001 %IA/g
  Fat uptake: 0.002 ± 0.001 %IA/g
  Heart uptake: 0.002 ± 0.001 %IA/g
  Intestines uptake: 0.012 ± 0.011 %IA/g
  Kidneys uptake: 0.111 ± 0.054 %IA/g
  Lacrimal glands uptake: 0.021 ± 0.010 %IA/g
  Liver uptake: 0.016 ± 0.004 %IA/g
  Lungs uptake: 0.006 ± 0.001 %IA/g
  Muscle uptake: 0.002 ± 0.002 %IA/g
  Pancreas uptake: 0.001 ± 0.001 %IA/g
  Salivary glands uptake: 0.005 ± 0.002 %IA/g
  Spleen uptake: 0.013 ± 0.004 %IA/g
  Stomach uptake: 0.013 ± 0.013 %IA/g
  Testes uptake: 0.006 ± 0.002 %IA/g
  Thyroid uptake: 0.005 ± 0.001 %IA/g
  Tumor uptake: 12.3±5.52 %IA/g
  Tumor:Blood uptake ratio: 8895 ± 4881
  Tumor:Kidney uptake ratio: 126 ± 76.0
  Tumor:Muscle uptake ratio: 11627 ± 7865
  Tumor:Salivary gland uptake ratio: 3324 ± 2257
LNCaP tumor-bearing mice [2]; 120 h post-injection, listed as [177Lu]Lu-PSMA-617
  Tumor uptake: 12.25 ± 5.519 %IA/g
LNCaP tumor-bearing mice [3]; mouse, in vivo
  Excretion pathway (SPECT imaging): excreted mainly via the renal pathway
LNCaP tumor-bearing mice [3]; ~37 MBq injected
  Tumor size change in SPECT/CT images: tumors shrank from Day 1 to Day 5
[4]; source organ Brain
  Kinetics value: 6.64E-03 MBq-h/MBq
[4]; source organ Cortical bone
  Kinetics value: 8.28E-03 MBq-h/MBq
[4]; source organ Heart contents
  Kinetics value: 3.28E-03 MBq-h/MBq
[4]; source organ Kidneys
  Kinetics value: 8.23E-01 MBq-h/MBq
[4]; source organ Large intestine
  Kinetics value: 8.80E-03 MBq-h/MBq
[4]; source organ Liver
  Kinetics value: 6.38E-02 MBq-h/MBq
[4]; source organ Lungs
  Kinetics value: 4.85E-03 MBq-h/MBq
[4]; source organ Pancreas
  Kinetics value: 4.76E-03 MBq-h/MBq
[4]; source organ Remainder of the body
  Kinetics value: 1.68E-01 MBq-h/MBq
[4]; source organ Small intestine
  Kinetics value: 2.63E-02 MBq-h/MBq
[4]; source organ Spleen
  Kinetics value: 1.41E-02 MBq-h/MBq
[4]; source organ Stomach
  Kinetics value: 2.34E-04 MBq-h/MBq
[4]; source organ Testes
  Kinetics value: 4.23E-03 MBq-h/MBq
[4]; source organ Thyroid
  Kinetics value: 4.01E-04 MBq-h/MBq
[4]; source organ Urinary bladder contents
  Kinetics value: 8.04E-01 MBq-h/MBq
